Consider four compounds from patent publication US8337900B2, “Reverse-phase microcapsules for active ingredients, simplified process of manufacture thereof and combined formulation WDG-CS, ZC, EC-SC, and CX” (priority 2006, dated 2012).

Series [1] is described as follows: Accelerated heat stability test (54° C.), physical stability and chemical degradation by HPLC. Type of series: physicochemical. To be noted: NPμ in a CX-w; results and process not shown. How it is done:
Both formulations were submitted to accelerated heat stability tests (at 54° C. for 2 weeks).
Also, presence of unencapsulated material—water soluble a.i.—was below 0.1%.
These tests were performed with HPLC and standard methods of analysis under Good Laboratory Practice conditions.

The conditions of series [2]: cited from earlier work.
A short description of series [3]: Stability to hydrolysis versus commercial formulations. Type of series: physicochemical. To be noted: in a CX, microencapsulated in NPμ and combined with sulfosate. The source says: This refers to the typical variations: thifensulfuron-ethyl<→thifensulfuron, etc.

Turning to `COC(=O)c1ccccc1S(=O)(=O)NC(=O)N(C)c1nc(C)nc(OC)n1` [tribenuron-methyl], the “degradation inhibition by microencapsulation” value in series [1] is “equally observed”.

Consider `CC(C)(C)C(O)(CCc1ccc(Cl)cc1)Cn1cncn1` (centres unmarked) [tebuconazole], for which, in series [2] (hexane), the solubility in hexane result is “lower than 0.1 g/L”.

Take `COc1cc(OC)nc(NC(=O)NS(=O)(=O)c2ncccc2C(=O)N(C)C)n1` [nicosulfuron]: the “more stable to hydrolysis than current commercial formulations” value in series [3] is recorded as “at least 20 % times”. For the compound `O=C(O)c1cc(Oc2ccc(C(F)(F)F)cc2Cl)ccc1[N+](=O)[O-]` [acifluorfen-sodium], in series [2] (isooctanol), the solubility in isooctanol result was “around 6 g/L”. Besides, the solubility in water result in series [2] (water) is “about 60 g/L”.
